The numbers were not newly measured in US6403361B1, “Enzymatic method for modification of recombinant polypeptides” (Restoragen, Inc., priority 1993, dated 2002), which cites them from elsewhere.

Like-named read-outs stand apart in the source and are kept apart here. A value given as a limit tells only on which side of the number the result lay.

In one data set the target is T1, Adenosine deaminase (Homo sapiens, UniProt P00813).
T1 sequence (P00813 1-363): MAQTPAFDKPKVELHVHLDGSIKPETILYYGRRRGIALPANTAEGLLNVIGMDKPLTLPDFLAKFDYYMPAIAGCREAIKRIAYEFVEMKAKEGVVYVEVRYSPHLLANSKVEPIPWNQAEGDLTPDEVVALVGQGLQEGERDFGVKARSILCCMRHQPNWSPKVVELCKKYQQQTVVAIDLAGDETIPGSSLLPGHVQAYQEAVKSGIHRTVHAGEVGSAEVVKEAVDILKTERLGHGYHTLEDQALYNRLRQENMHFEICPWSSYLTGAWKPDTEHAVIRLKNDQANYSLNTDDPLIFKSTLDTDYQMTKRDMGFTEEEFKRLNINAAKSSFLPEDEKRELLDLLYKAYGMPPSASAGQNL
The note with it: E is times ten to the negative exponent.

A further data set has as its target T2, Cholesterol esterase (Homo sapiens, UniProt P19835).
T2 sequence (P19835 21-753): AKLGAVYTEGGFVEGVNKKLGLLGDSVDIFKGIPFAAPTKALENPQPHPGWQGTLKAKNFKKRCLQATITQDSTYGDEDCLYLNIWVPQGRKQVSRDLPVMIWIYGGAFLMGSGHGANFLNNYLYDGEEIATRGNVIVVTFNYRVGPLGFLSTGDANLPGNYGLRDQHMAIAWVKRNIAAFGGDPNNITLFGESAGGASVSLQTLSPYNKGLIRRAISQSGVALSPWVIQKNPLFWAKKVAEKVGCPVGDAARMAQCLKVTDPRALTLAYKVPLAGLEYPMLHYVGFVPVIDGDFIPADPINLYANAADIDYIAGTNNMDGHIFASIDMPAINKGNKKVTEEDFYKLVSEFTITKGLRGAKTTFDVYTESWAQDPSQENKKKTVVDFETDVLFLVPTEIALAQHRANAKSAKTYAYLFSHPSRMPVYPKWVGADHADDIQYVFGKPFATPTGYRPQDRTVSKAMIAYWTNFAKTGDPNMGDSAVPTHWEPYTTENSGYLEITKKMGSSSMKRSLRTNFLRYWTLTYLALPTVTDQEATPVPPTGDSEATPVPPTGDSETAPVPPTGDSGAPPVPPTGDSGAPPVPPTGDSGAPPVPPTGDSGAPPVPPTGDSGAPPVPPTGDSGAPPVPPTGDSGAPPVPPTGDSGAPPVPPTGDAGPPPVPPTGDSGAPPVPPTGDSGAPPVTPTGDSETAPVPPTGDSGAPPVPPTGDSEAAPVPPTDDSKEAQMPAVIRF
The note with it: Ref. 8 (Sutton et al., BBRC, 134, 386-392 (1986)); E is times ten to the negative exponent.

As usually defined, the Kd is the free concentration of one partner at which half of the binding sites on the other are occupied at equilibrium, for simple one-to-one binding. On to `OC[C@H]1O[C@@H](n2cnc3c2N=CNC[C@H]3O)[C@H](O)[C@@H]1O` [Coformycin], for which, at Adenosine deaminase (Ref. 1 (Cha et al., Biochemical Pharm., 24, 2187-2197)), the Kd was < 0.12 nM.
As for `CCCCCCC(C(C)O)n1cnc2c(N)ncnc21` (stereo not drawn) [erythro-9-(2-hydroxy-3 nonyl) adenine], on Adenosine deaminase (Ref. 2 (Agarwal et al., Biochemical Pharm., 26, 354-367 (1977))), the Kd was 1.6 nM.
For Borinic acid, the dissociation constant (Kd) on Cholesterol esterase was 0.1 nM.
